Laboratory results from patent US8609651B2, “Pharmaceutical compositions of benzodiazepines and method of use thereof” (Jazz Pharmaceuticals, Inc., priority 2006, dated 2013).
Converted amounts (≈) assume the structure as drawn.

How the values were obtained:
[1] = Solubility of clonazepam in neat solvents
Procedure: The solubility of clonazepam in a number of neat solvents was determined using standard methods.

[2] = Solubility of benzodiazepines in DEGEE (Transcutol) at 25° C. and −16° C.; conditions: organic solvent or mixture, thermodynamic from solid
Procedure: The solubilities of several other benzodiazepines were measured in DEGEE (diethylene glycol monoethyl ether, transcutol) by the techniques of Example 1. Initially, 10 mg of the drug was loaded in the glass vial and 130-μL of DEGEE was added, and the samples were sonicated for 10 minutes. […] Samples were stored at −16° C. and 25° C. overnight, and centrifuged (5000 rpm, 2 minutes, −10° C. and 23° C. for the −16° C. and 25° C. samples, respectively). […] Clonazepam was measured by UV at 350 nm; all others at 300 nm.

[3] = Solubility of clonazepam in glycol ethers at 25° C.; conditions: neat solvent, organic solvent or mixture, thermodynamic from solid
Procedure: 10 mg of clonazepam was weighed into glass vials used in the Pfeiffer mono-dose spray system (Pfeiffer of America, Princeton, N.J.). Four samples of each of four solvents were prepared as follows. 130-μL of each solvent was pipetted into the vial, which was then stoppered with a black chlorobutyl rubber stopper.
The vials were removed from the chamber, placed inside polyethylene centrifuge vials, and centrifuged for 2 minutes at 5000 rpm. 10 μL of liquid was then sampled from each vial, accurately weighed, and diluted with 1 mL of acetonitrile. The drug concentration was analyzed by UV using an Agilent HPLC system with no column, 10 μL injection volume, acetonitrile mobile phase, 0.3 mL/min and UV detection at 350 nm.

[4] = Solubilities of clonazepam in glycol ethers at 3 temperatures; conditions: neat solvent, organic solvent or mixture, thermodynamic from solid
Procedure: The vials were then centrifuged at −5° C. and 5° C. for the −15° C. and 5° C. samples, respectively, at 5000 rpm for 2 minutes.

[5] = Solubilities of clonazepam in water-containing solvents; format: physicochemical; conditions: 25 °C
Procedure: The vials were stored at 25° C. for approximately 1 day. Prior to sampling, the vials were centrifuged at 5000 rpm for 2 minutes at 23° C. The results are shown below; neat solvent solubilities from Example 11 are included for reference. Increased water content decreases solubility substantially.

[6] = Human pharmacokinetic study (oral, intravenous, intranasal cross-over); conditions: 1 mg; for AUC / Cmax / Tmax / bioavailability: male, plasma; for bioavailability: other: intranasal, intranasal 1 mg
Procedure: The human pharmacokinetics, safety, and tolerability of the benzodiazepines compositions of the present invention formulated for intranasal delivery for therapeutic applications are evaluated using standard clinical procedures. Benzodiazepine compositions formulated for intranasal delivery are provided, for example, for application by the participants to intranasal mucosa.
A primary objective of initial studies in humans is to determine and compare pharmacokinetic profiles of three dosage forms of a benzodiazepine: oral, i.v., and intranasal, following single administration. An example of such a study in humans is a cross-over study performed in 12 healthy male volunteers. Plasma and urine level of clonazepam and 7-amino-clonazepam are determined, for example, using HPLC and UV detection. […] Further the initial studies in humans are used to determine local tolerability of intranasal formulation using questionnaire and the Visual Analog Scale (VAS). VAS is a validated instrument that has been used in numerous studies to quantify subjective […]. In addition, cognitive, sleepiness and mood effects are evaluated using questionnaires and scales (see, e.g., Example 10 below). Further, attention and vigilance may be evaluated using, for example, LEEDS Psychomotor Multiple Choice Reaction Time (MCRT) testing.
A human pharmacokinetic study was carried out as described in Example 8.
15 young, healthy male volunteers received a single dose of 1 mg clonazepam by oral, intravenous and intranasal routes in a three-period cross-over design.

[7] = qEEG mapping in volunteers; format: in vivo; conditions: human, oral
[8] = Psychomotor, cognitive and subjective tests in volunteers; format: in vivo; conditions: human
[9] = in vivo; cited from earlier work

O=C1CN=C(c2ccccc2Cl)c2cc([N+](=O)[O-])ccc2N1 [Clonazepam, 5-(2-chlorophenyl)-1,3-dihydro-7-nitro-2H-1,4-benzodiazepin-2-one]
solubility ([1]; PEG 200 (neat solvent), organic solvent or mixture): 30.3 mg/mL (≈ 96 mM)
solubility ([1]; PEG 300 (neat solvent), organic solvent or mixture): 37 mg/mL (≈ 117 mM)
solubility ([1]; Transcutol (neat solvent), organic solvent or mixture): 38.7 mg/mL (≈ 123 mM)
solubility ([1]; glycofurol (neat solvent), organic solvent or mixture): 67.3 mg/mL (≈ 213 mM)
solubility ([1]; propylene glycol (neat solvent), organic solvent or mixture): 3.4 mg/mL (≈ 10.8 mM)
solubility ([1]; triacetin (neat solvent), organic solvent or mixture): 5.8 mg/mL (≈ 18.4 mM)
solubility ([1]; water): < 0.1 mg/mL
solubility ([2]; 25 °C): 38.9 mg/mL (≈ 123 mM)
solubility ([2]; -16 °C): 35.3 mg/mL (≈ 112 mM)
solubility ([3]; 1,2-dimethyxoethane): 39.3 mg/mL (≈ 124 mM)
solubility ([3]; di(ethylene glycol) diethyl ether): 19 mg/mL (≈ 60.2 mM)
solubility ([3]; di(ethylene glycol) methyl ether): 56.4 mg/mL (≈ 179 mM)
solubility ([3]; diethylene glycol monoethyl ether (DEGEE)): 41.8 mg/mL (≈ 132 mM)
solubility ([4]; 1,2-dimethyxoethane, 5 °C): 35.7 mg/mL (≈ 113 mM)
solubility ([4]; 1,2-dimethyxoethane, 25 °C): 39.3 mg/mL (≈ 124 mM)
solubility ([4]; 1,2-dimethyxoethane, -15 °C): 35.2 mg/mL (≈ 111 mM)
solubility ([4]; di(ethylene glycol) diethyl ether, 5 °C): 18.5 mg/mL (≈ 58.6 mM)
solubility ([4]; di(ethylene glycol) diethyl ether, 25 °C): 19 mg/mL (≈ 60.2 mM)
solubility ([4]; di(ethylene glycol) diethyl ether, -15 °C): 19.5 mg/mL (≈ 61.8 mM)
solubility ([4]; di(ethylene glycol) methyl ether, 5 °C): 53.9 mg/mL (≈ 171 mM)
solubility ([4]; di(ethylene glycol) methyl ether, 25 °C): 56.4 mg/mL (≈ 179 mM)
solubility ([4]; di(ethylene glycol) methyl ether, -15 °C): 58.1 mg/mL (≈ 184 mM)
solubility ([4]; diethylene glycol monoethyl ether (DEGEE), 25 °C): 41.8 mg/mL (≈ 132 mM)
solubility ([4]; diethylene glycol monoethyl ether, 5 °C): 37.7 mg/mL (≈ 119 mM)
solubility ([4]; diethylene glycol monoethyl ether, -15 °C): 43.3 mg/mL (≈ 137 mM)
solubility ([5]; 1,2-dimethyxoethane / pH 6.8 buffered water mixture (20:80), pH 6.8, aqueous with cosolvent or surfactant or cyclodextrin, kinetic from dmso stock, 1,2-dimethyxoethane 20% solvent, 80% pH6.8 buffered water, 25° C.): 0.18 mg/mL (≈ 0.57 mM)
solubility ([5]; 1,2-dimethyxoethane / pH 6.8 buffered water mixture (40:60), pH 6.8, aqueous with cosolvent or surfactant or cyclodextrin, kinetic from dmso stock, 1,2-dimethyxoethane 40% solvent, 60% pH6.8 buffered water, 25° C.): 0.64 mg/mL (≈ 2.03 mM)
solubility ([5]; 1,2-dimethyxoethane / pH 6.8 buffered water mixture (60:40), pH 6.8, aqueous with cosolvent or surfactant or cyclodextrin, kinetic from dmso stock, 1,2-dimethyxoethane 60% solvent, 40% pH6.8 buffered water, 25° C.): 9.2 mg/mL (≈ 29.1 mM)
solubility ([5]; 1,2-dimethyxoethane / pH 6.8 buffered water mixture (80:20), pH 6.8, aqueous with cosolvent or surfactant or cyclodextrin, kinetic from dmso stock, 1,2-dimethyxoethane 80% solvent, 20% pH6.8 buffered water, 25° C.): 29.6 mg/mL (≈ 93.8 mM)
solubility ([5]; 1,2-dimethyxoethane, neat solvent, organic solvent or mixture, 1,2-dimethyxoethane 100% solvent, 0% water, 25° C. (neat, from Example 11)): 39.3 mg/mL (≈ 124 mM)
solubility ([5]; pH 6.8, aqueous with cosolvent or surfactant or cyclodextrin, kinetic from dmso stock, Di (ethylene glycol) methyl ether 20% solvent, 80% pH6.8 buffered water): 0.26 mg/mL (≈ 0.824 mM)
solubility ([5]; pH 6.8, aqueous with cosolvent or surfactant or cyclodextrin, kinetic from dmso stock, Di (ethylene glycol) methyl ether 40% solvent, 60% pH6.8 buffered water): 1 mg/mL (≈ 3.17 mM)
solubility ([5]; pH 6.8, aqueous with cosolvent or surfactant or cyclodextrin, kinetic from dmso stock, Di (ethylene glycol) methyl ether 60% solvent, 40% pH6.8 buffered water): 2.8 mg/mL (≈ 8.87 mM)
solubility ([5]; pH 6.8, aqueous with cosolvent or surfactant or cyclodextrin, kinetic from dmso stock, Di (ethylene glycol) methyl ether 80% solvent, 20% pH6.8 buffered water): 18.9 mg/mL (≈ 59.9 mM)
solubility ([5]; pH 6.8, aqueous with cosolvent or surfactant or cyclodextrin, kinetic from dmso stock, Di (ethyleneglycol) diethyl ether 20% solvent, 80% pH6.8 buffered water): 0.31 mg/mL (≈ 0.982 mM)
solubility ([5]; pH 6.8, aqueous with cosolvent or surfactant or cyclodextrin, kinetic from dmso stock, Di (ethyleneglycol) diethyl ether 40% solvent, 60% pH6.8 buffered water): 1.23 mg/mL (≈ 3.9 mM)
solubility ([5]; pH 6.8, aqueous with cosolvent or surfactant or cyclodextrin, kinetic from dmso stock, Di (ethyleneglycol) diethyl ether 60% solvent, 40% pH6.8 buffered water): 8.5 mg/mL (≈ 26.9 mM)
solubility ([5]; pH 6.8, aqueous with cosolvent or surfactant or cyclodextrin, kinetic from dmso stock, Di (ethyleneglycol) diethyl ether 80% solvent, 20% pH6.8 buffered water): 38.8 mg/mL (≈ 123 mM)
solubility ([5]; pH 6.8, aqueous with cosolvent or surfactant or cyclodextrin, kinetic from dmso stock, Diethylene glycol monoethyl ether 20% solvent, 80% pH6.8 buffered water): 0.3 mg/mL (≈ 0.95 mM)
solubility ([5]; pH 6.8, aqueous with cosolvent or surfactant or cyclodextrin, kinetic from dmso stock, Diethylene glycol monoethyl ether 40% solvent, 60% pH6.8 buffered water): 0.52 mg/mL (≈ 1.65 mM)
solubility ([5]; pH 6.8, aqueous with cosolvent or surfactant or cyclodextrin, kinetic from dmso stock, Diethylene glycol monoethyl ether 60% solvent, 40% pH6.8 buffered water): 4.5 mg/mL (≈ 14.3 mM)
solubility ([5]; pH 6.8, aqueous with cosolvent or surfactant or cyclodextrin, kinetic from dmso stock, Diethylene glycol monoethyl ether 80% solvent, 20% pH6.8 buffered water): 21.8 mg/mL (≈ 69 mM)
solubility ([5]; di(ethylene glycol) diethyl ether, neat solvent, organic solvent or mixture, Di (ethyleneglycol) diethyl ether 100% solvent, 0% water, 25° C. (neat, from Example 11)): 19 mg/mL (≈ 60.2 mM)
solubility ([5]; di(ethylene glycol) methyl ether, neat solvent, organic solvent or mixture, Di (ethylene glycol) methyl ether 100% solvent, 0% water, 25° C. (neat, from Example 11)): 56.4 mg/mL (≈ 179 mM)
solubility ([5]; diethylene glycol monoethyl ether (DEGEE), neat solvent, organic solvent or mixture, Diethylene glycol monoethyl ether 100% solvent, 0% water, 25° C. (neat, from Example 11)): 41.8 mg/mL (≈ 132 mM)
Cmax of the intranasal route as % of the intravenous route [6]: 17%
Cmax of the intranasal route as % of the oral route [6]: 93%
AUC ([6]; inhaled or intranasal): ~58 ng·h/mL
Cmax ([6]; inhaled or intranasal): 7.12 ± 3.81 ng/mL
Tmax ([6]; inhaled or intranasal): 12 min
Tmax ([6]; intravenous): 6 min
AUC ([6]; iv): ~106 ng·h/mL
Cmax ([6]; iv): 42.5 ± 10.8 ng/mL
bioavailability ([6]; bioavailability relative to intravenous): 55%
bioavailability ([6]; bioavailability relative to oral): 61%
AUC ([6]; po): ~95 ng·h/mL
Cmax ([6]; po): 7.64 ± 1.74 ng/mL
Tmax ([6]; po): 120 min
time after dosing at which EEG pattern (increased delta and beta, decreased alpha and theta) was noted [7]: approximately 2 hours
time at which psychomotor and subjective effects were first apparent ([8]; intranasal): approximately 30 minutes
time at which psychomotor and subjective effects were first apparent ([8]; intravenous): approximately 30 minutes
time at which psychomotor and subjective effects were first apparent ([8]; oral): approximately 2 hours
amount excreted unchanged in the urine [9]: less than 0.5 % of a dose
excreted in the feces [9]: 9-27 % of a dose
half-life [9]: 1080 to 3000 min
roughly equal dose (potency equivalence) [9]: ~0.25 mg
